Reference: patent US20260297060A1, “COMPOUNDS FOR THE DEGRADATION OF MUTANT BRAF” (C4 THERAPEUTICS, INC., priority 2023, published 2026)

Tested on: A375 human melanoma xenografts
Assay: In vivo therapeutic efficacy in A375 human melanoma xenografts (tumor volume, T/C, TGI), Example 14
Parameters: species or system human tumor in female BALB/c nude mice
Method: Agents were tested in the A375 human melanoma xenografts. Compound 26 and Compound 141 were administered to BALB/c nude mice bearing A375 tumors from PG-DO and dosed via PO twice a day (BID) or third a day (TIP) or dosed P daily (QD) from PG-D. Dabrafenib was administered to BALB/c nude mice bearing A375 tumors from PG-D1 and dosed via P daily (QD). Compound 26 was dosed at 1.5 mg/kg (QD), 2 mg/kg (TID), 3 mg/kg (BID), 6 mg/kg (QD) and 10 mg/kg (BID) for 21 days. Compound 141 was dosed at 0.75 mg/kg (BID), 1 mg/kg (TID), 1.5 mg/kg (BID), 3 mg/kg (QD) and 5 mg/kg (BID) for 21 days. Dabrafenib was dosed at 100 mg/kg for 21 days. This study was non-GLP.
One hundred and thirty-eight female BALB/c nude Mus Musculus mice procured from Shanghai Lingchang Biological Science and Technology Co., LTD between the ages of six to eight weeks and with body weight between eighteen and twenty-two grams were used for the study. A spare mouse was also procured.
The A375 tumor cells were maintained in vitro in DMEM medium supplemented with 10% fetal bovine serum and 1% Penicillin-Streptomycin at 37° C. in an atmosphere of 5% CO2 in air. The tumor cells were routinely sub-cultured twice weekly. The cells growing in an exponential growth phase were harvested and counted for tumor inoculation.
Each mouse was inoculated subcutaneously at the right flank with A375 cells (5×10^6) in 0.2 mL of PBS supplemented with Matrigel (PBS: Matrigel=1:1) for tumor development. Animals were grouped for efficacy study on day 15 after tumor inoculation when the average tumor volume reached 220 mm^3. The test articles administration and the animal numbers in each group are shown in the above experimental Table 75.
At the time of routine monitoring, the animals were checked daily for any effects of tumor growth and treatments on normal behavior such as mobility, food and water consumption (by looking only), body weight gain/loss (body weights were measured twice weekly), eye/hair matting and any other abnormal effect as stated in the protocol. Death and observed clinical signs were recorded on the basis of the numbers of animals within each subset.
Prior to the onset of drug treatment, mice were measured for tumor size in two dimensions using a caliper, and the tumor volume (mm^3) was calculated using formula V=0.5 a×b^2 where a and b are the long and short diameters of the tumor in mm, respectively. Mice were randomized into different treatment groups based on the tumor volume.
The major endpoint was to see if the tumor growth could be delayed or mice could be cured. The tumor size was then used for calculations of T/C value. The T/C value (in percent) is an indication of antitumor effectiveness; T and C are the mean volumes of the treated and control groups, respectively on specified day.
TGI was calculated for each group using the formula: TGI (%)=[1−(Ti−T0)/(Ci−C0)]×100; Ti is the average tumor volume of a treatment group on a given day, T0 is the average tumor volume of the treatment group on the day of treatment start, Ci is the average tumor volume of the vehicle control group on the same day with Ti, and C0 is the average tumor volume of the vehicle group on the day of treatment start.
A one-way ANOVA followed by Dunnett's multiple comparison test was performed to compare tumor volume among vehicle group (Group 1) and treatment groups (Group 2-Group 12). All data were analyzed using GraphPad Prism, ns indicates p>0.05, * indicates p<0.05, ** indicates p<0.01, *** indicates p<0.001 and **** indicates p<0.0001.
Tumor growth inhibition of Compound 26, Compound 141 and dabrafenib in the treatment of female BALB/c nude mice bearing A375 xenografts was calculated based on tumor volume measured on […]. TGI and T/C were calculated respectively and the data are detailed in Table 82.

[1] = 2 mg/kg p.o. TID × 21 days, PG-D21

CCN(C)S(=O)(=O)Nc1ccc(F)c(Oc2ccc3ncn([C@H]4COC5(CCN(C6CC7(C6)CN(c6cc8c(cc6F)c(N6CCC(=O)NC6=O)nn8C)C7)CC5)C4)c(=O)c3c2)c1C#N [Compound 26, (3R)-3-[6-[2-cyano-3-[[ethyl(methyl)sulfamoyl]amino]-6-fluoro-phenoxy]-4-oxo-quinazolin-3-yl]-8-[2-[3-(2,4-dioxohexahydropyrimidin-1-yl)-5-fluoro-1-methyl-indazol-6-yl]-2-azaspiro[3.3]heptan-6-yl]-1-oxa-8-azaspiro[4.5]decane]
Tumor volume (1.5 mg/kg p.o. BID x 21 days, day 0, mean ± SEM): 220 ± 16 mm^3
Tumor volume (1.5 mg/kg p.o. BID x 21 days, day 4, mean ± SEM): 249 ± 21 mm^3
Tumor volume (1.5 mg/kg p.o. BID x 21 days, day 7, mean ± SEM): 227 ± 23 mm^3
Tumor volume (1.5 mg/kg p.o. BID x 21 days, day 11, mean ± SEM): 210 ± 26 mm^3
Tumor volume (1.5 mg/kg p.o. BID x 21 days, day 14, mean ± SEM): 204 ± 26 mm^3
Tumor volume (1.5 mg/kg p.o. BID x 21 days, day 18, mean ± SEM): 271 ± 44 mm^3
Tumor volume (1.5 mg/kg p.o. BID x 21 days, day 21, mean ± SEM): 400 ± 70 mm^3
Tumor volume (1.5 mg/kg p.o. BID x 21 days, day 25 (dosing-free regrowth), mean ± SEM): 730 ± 94 mm^3
Tumor volume (1.5 mg/kg p.o. BID x 21 days, day 28 (dosing-free regrowth), mean ± SEM): 1006 ± 99 mm^3
Tumor volume (1.5 mg/kg p.o. BID x 21 days, day 32 (dosing-free regrowth), mean ± SEM): 1224 ± 99 mm^3
Tumor volume (1.5 mg/kg p.o. BID x 21 days, day 35 (dosing-free regrowth), mean ± SEM): 1497 ± 94 mm^3
Tumor volume (1.5 mg/kg p.o. BID x 21 days, day 39 (dosing-free regrowth), mean ± SEM): 1978 ± 148 mm^3
Tumor volume (1.5 mg/kg p.o. BID x 21 days, day 42 (dosing-free regrowth), mean ± SEM): 2420 ± 205 mm^3
Tumor volume (1.5 mg/kg p.o. BID x 21 days, day 46 (dosing-free regrowth), mean ± SEM): 2759 ± 274 mm^3
Tumor volume (1.5 mg/kg p.o. BID x 21 days, day 49 (dosing-free regrowth), mean ± SEM): 2514 ± 268 mm^3
Tumor volume (1.5 mg/kg p.o. BID x 21 days, day 53 (dosing-free regrowth), mean ± SEM): 3087 ± 444 mm^3
Tumor volume (1.5 mg/kg p.o. BID x 21 days, day 56 (dosing-free regrowth)): 3153 mm^3
Tumor volume (2 mg/kg p.o. TID x 21 days, day 0, mean ± SEM): 220 ± 15 mm^3
Tumor volume (2 mg/kg p.o. TID x 21 days, day 4, mean ± SEM): 172 ± 13 mm^3
Tumor volume (2 mg/kg p.o. TID x 21 days, day 7, mean ± SEM): 99 ± 9 mm^3
Tumor volume (2 mg/kg p.o. TID x 21 days, day 11, mean ± SEM): 68 ± 8 mm^3
Tumor volume (2 mg/kg p.o. TID x 21 days, day 14, mean ± SEM): 51 ± 7 mm^3
Tumor volume (2 mg/kg p.o. TID x 21 days, day 18, mean ± SEM): 36 ± 4 mm^3
Tumor volume (2 mg/kg p.o. TID x 21 days, day 21, mean ± SEM): 41 ± 5 mm^3
Tumor volume (2 mg/kg p.o. TID x 21 days, day 25 (dosing-free regrowth), mean ± SEM): 85 ± 16 mm^3
Tumor volume (2 mg/kg p.o. TID x 21 days, day 28 (dosing-free regrowth), mean ± SEM): 156 ± 32 mm^3
Tumor volume (2 mg/kg p.o. TID x 21 days, day 32 (dosing-free regrowth), mean ± SEM): 292 ± 57 mm^3
Tumor volume (2 mg/kg p.o. TID x 21 days, day 35 (dosing-free regrowth), mean ± SEM): 441 ± 86 mm^3
Tumor volume (2 mg/kg p.o. TID x 21 days, day 39 (dosing-free regrowth), mean ± SEM): 754 ± 156 mm^3
Tumor volume (2 mg/kg p.o. TID x 21 days, day 42 (dosing-free regrowth), mean ± SEM): 980 ± 198 mm^3
Tumor volume (2 mg/kg p.o. TID x 21 days, day 46 (dosing-free regrowth), mean ± SEM): 1320 ± 265 mm^3
Tumor volume (2 mg/kg p.o. TID x 21 days, day 49 (dosing-free regrowth), mean ± SEM): 1646 ± 332 mm^3
Tumor volume (2 mg/kg p.o. TID x 21 days, day 53 (dosing-free regrowth), mean ± SEM): 2216 ± 435 mm^3
Tumor volume (2 mg/kg p.o. TID x 21 days, day 56 (dosing-free regrowth), mean ± SEM): 2482 ± 579 mm^3
Tumor Size on PG-D21 (Mean ± SEM) (2 mg/kg p.o. TID × 21 days): 41 ± 5 mm^3
T/C [1]: 2.2%
TGI [1]: 110.8%
Tumor volume (3 mg/kg p.o. BID x 21 days, day 0, mean ± SEM): 220 ± 15 mm^3
Tumor volume (3 mg/kg p.o. BID x 21 days, day 4, mean ± SEM): 219 ± 16 mm^3
Tumor volume (3 mg/kg p.o. BID x 21 days, day 7, mean ± SEM): 136 ± 11 mm^3
Tumor volume (3 mg/kg p.o. BID x 21 days, day 11, mean ± SEM): 83 ± 6 mm^3
Tumor volume (3 mg/kg p.o. BID x 21 days, day 14, mean ± SEM): 52 ± 5 mm^3
Tumor volume (3 mg/kg p.o. BID x 21 days, day 18, mean ± SEM): 45 ± 7 mm^3
Tumor volume (3 mg/kg p.o. BID x 21 days, day 21, mean ± SEM): 48 ± 9 mm^3
Tumor volume (3 mg/kg p.o. BID x 21 days, day 25 (dosing-free regrowth), mean ± SEM): 129 ± 75 mm^3
Tumor volume (3 mg/kg p.o. BID x 21 days, day 28 (dosing-free regrowth), mean ± SEM): 258 ± 165 mm^3
Tumor volume (3 mg/kg p.o. BID x 21 days, day 32 (dosing-free regrowth), mean ± SEM): 423 ± 234 mm^3
Tumor volume (3 mg/kg p.o. BID x 21 days, day 35 (dosing-free regrowth), mean ± SEM): 578 ± 289 mm^3
Tumor volume (3 mg/kg p.o. BID x 21 days, day 39 (dosing-free regrowth), mean ± SEM): 878 ± 311 mm^3
Tumor volume (3 mg/kg p.o. BID x 21 days, day 42 (dosing-free regrowth), mean ± SEM): 1129 ± 390 mm^3
